Some test systems named below: COLO 205; K562; A498; NCI-H23; SK-MEL-28; SF-539; Hs-578T; RXF 393; UO-31; OVCAR-5; SK-MEL-5; OVCAR-8; MDA-MB-231; NCI-H460; MDA-N; UACC-62; NCI/ADR-RES; KM12; SW-620; HT-29.
Test in all cases: NCI tumour cell line growth inhibition, 48 h

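Following 48 hours of exposure in 96-well plates, responses at five concentrations were used to interpolate endpoints linearly. The concentration for 50% growth inhibition is given as GI50.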 The source made the active and inactive calls. Cut-off read from the data, not from the text of the source: active = GI50 up to about 1.1 µM and inactive = higher.

With `COC(=O)c1nn2ccc3ccccc3c2c1C(=O)OC`, the GI50 in the experiment on COLO 205 is > 100 µM (inactive); in the experiment with K562, 58.7 µM (inactive); in the experiment with A498 it was 22.5 µM (inactive); in the experiment on NCI-H23, > 100 µM (inactive); with SK-MEL-28, > 100 µM (inactive); with SF-539 it was > 100 µM (inactive). Also, the GI50 in the experiment on Hs-578T is > 100 µM (inactive); in the experiment on RXF 393, 59.2 µM (inactive); in the experiment on UO-31 it was 32.2 µM (inactive); in the experiment with OVCAR-5, > 100 µM (inactive); with SK-MEL-5, 37 µM (inactive); in the experiment on OVCAR-8, > 100 µM (inactive). The GI50 was 53 µM (inactive) in the experiment on MDA-MB-231; > 100 µM (inactive) in the experiment with NCI-H460; 34.8 µM (inactive) in the experiment on MDA-N; 36.6 µM (inactive) in the experiment on UACC-62; 62.7 µM (inactive) with NCI/ADR-RES; 58.7 µM (inactive) with KM12. In addition, the GI50 in the experiment on SW-620 was > 100 µM (inactive); with HT-29, 48 µM (inactive).
As to `CS(=O)(=O)Nc1ccc(Nc2c3ccccc3nc3ccccc23)cc1`, the GI50 in the experiment with COLO 205 is 1.69 µM (inactive); with K562, 2.23 µM (inactive); in the experiment with A498, 3.21 µM (inactive); in the experiment with NCI-H23 it was 4.06 µM (inactive); with SK-MEL-28, 4.75 µM (inactive); with SF-539, 3.4 µM (inactive). The GI50 in the experiment with Hs-578T was 6.43 µM (inactive); in the experiment with RXF 393, 5.73 µM (inactive); with UO-31, 2.23 µM (inactive); with OVCAR-5 it was 4.39 µM (inactive); with SK-MEL-5, 1.71 µM (inactive); in the experiment on OVCAR-8, 2.77 µM (inactive). Also, the GI50 is 3.56 µM (inactive) in the experiment with MDA-MB-231; 0.112 µM (active) with NCI-H460; 5.94 µM (inactive) with MDA-N; 1.34 µM (inactive) with UACC-62; 7.28 µM (inactive) in the experiment with NCI/ADR-RES; 3.13 µM (inactive) in the experiment with KM12. Moreover, the GI50 is 1.11 µM (active) in the experiment on SW-620 and 4.4 µM (inactive) with HT-29.
Consider `O=C(Nc1ccccc1)c1cc(S(=O)(=O)N2CCNC2=O)c(S)cc1Cl`, for which the GI50 in the experiment with COLO 205, in the experiment on K562, with A498, with NCI-H23, in the experiment with SK-MEL-28 and with SF-539 was > 100 µM (inactive) in each case. Moreover, the GI50 with Hs-578T, in the experiment with RXF 393, in the experiment on UO-31, with OVCAR-5, in the experiment on SK-MEL-5 and with OVCAR-8 was > 100 µM (inactive) each time. Also, the GI50 in the experiment on MDA-MB-231, with NCI-H460, with MDA-N, in the experiment on UACC-62, with NCI/ADR-RES and with KM12 was > 100 µM (inactive) in each case. Besides, the GI50 in the experiment with SW-620 and with HT-29 was > 100 µM (inactive) in each case.
In the case of `COC(=O)c1ccccc1/C=C1/Cc2ccccc2C1=O`, the GI50 was 30 µM (inactive) in the experiment with COLO 205; 32.7 µM (inactive) with K562; > 100 µM (inactive) in the experiment with A498; 68.4 µM (inactive) with NCI-H23; 65.5 µM (inactive) in the experiment on SK-MEL-28; > 100 µM (inactive) in the experiment on SF-539. Moreover, the GI50 is 30.9 µM (inactive) in the experiment on Hs-578T; 54.6 µM (inactive) in the experiment with RXF 393; 50.6 µM (inactive) in the experiment with UO-31; 33.3 µM (inactive) with OVCAR-5; 18.6 µM (inactive) in the experiment on SK-MEL-5; 47.1 µM (inactive) with OVCAR-8. Also, the GI50 in the experiment with MDA-MB-231 is 44.7 µM (inactive); with NCI-H460 it was > 100 µM (inactive); in the experiment on MDA-N, 55.8 µM (inactive); in the experiment on UACC-62, 36.1 µM (inactive); in the experiment with NCI/ADR-RES, 36.5 µM (inactive); with KM12, 25.2 µM (inactive). The GI50 is 28.3 µM (inactive) with SW-620 and 37.9 µM (inactive) in the experiment on HT-29.
As to `NC(=O)C(Nc1ccc(Cl)cc1)c1cc2cc(Br)ccc2nc1Cl` (centres undefined), the GI50 in the experiment on COLO 205 was > 50 µM (inactive); in the experiment with K562, 20.5 µM (inactive); in the experiment with A498, > 50 µM (inactive); in the experiment with NCI-H23 it was > 50 µM (inactive); in the experiment with SK-MEL-28, 48 µM (inactive); in the experiment on SF-539 it was 18.5 µM (inactive). The GI50 in the experiment on Hs-578T is > 50 µM (inactive); in the experiment with RXF 393 it was 41.1 µM (inactive); in the experiment with UO-31, > 50 µM (inactive); in the experiment on OVCAR-5, > 50 µM (inactive); in the experiment with SK-MEL-5, 42.2 µM (inactive); in the experiment on OVCAR-8, > 50 µM (inactive). Besides, the GI50 in the experiment with MDA-MB-231 is > 50 µM (inactive); with NCI-H460 it was > 50 µM (inactive); in the experiment with MDA-N it was 43.7 µM (inactive); in the experiment on UACC-62 it was > 50 µM (inactive); in the experiment on NCI/ADR-RES, > 50 µM (inactive); in the experiment with KM12 it was > 50 µM (inactive). Also, the GI50 was 34.8 µM (inactive) in the experiment with SW-620 and > 50 µM (inactive) with HT-29.
Turning to `CCCc1nnc2sc(COc3cc(Cl)c(OCc4nn5c(CCC)nnc5s4)cc3Cl)nn12`, the GI50 in the experiment on COLO 205 is 50.5 µM (inactive); with K562, 0.596 µM (active); with A498 it was 37.8 µM (inactive); in the experiment on NCI-H23 it was 0.748 µM (active); in the experiment on SK-MEL-28, 5.66 µM (inactive); in the experiment with SF-539, 47.8 µM (inactive). The GI50 is 32 µM (inactive) with Hs-578T; 31.6 µM (inactive) with RXF 393; > 100 µM (inactive) in the experiment on OVCAR-5; 12.3 µM (inactive) in the experiment with SK-MEL-5; 27.4 µM (inactive) with OVCAR-8; 47.1 µM (inactive) in the experiment with MDA-MB-231. Moreover, the GI50 is 42.8 µM (inactive) with NCI-H460; 37.6 µM (inactive) in the experiment with MDA-N; 24.2 µM (inactive) in the experiment with UACC-62; 5.9 µM (inactive) with NCI/ADR-RES; 70.1 µM (inactive) in the experiment with KM12; > 100 µM (inactive) in the experiment with SW-620. Moreover, in the experiment on HT-29, the GI50 is 53 µM (inactive).
As to `CS(=O)(=O)c1ccc(NNc2cc(=O)[nH]c(=O)[nH]2)cc1`, the GI50 in the experiment with COLO 205, with K562, with A498, in the experiment with NCI-H23, in the experiment on SK-MEL-28 and in the experiment on SF-539 was > 100 µM (inactive) in each case. Also, the GI50 in the experiment with Hs-578T, with RXF 393, in the experiment on UO-31, in the experiment on OVCAR-5, in the experiment on SK-MEL-5 and in the experiment with MDA-MB-231 was > 100 µM (inactive) in each case. In addition, the GI50 with NCI-H460, in the experiment on MDA-N, in the experiment on UACC-62, in the experiment with NCI/ADR-RES, in the experiment with KM12 and with SW-620 was > 100 µM (inactive) throughout. In the experiment on HT-29, the GI50 is > 100 µM (inactive).
`COc1cccc(-c2cc(=O)c3ccc(C)nc3[nH]2)c1`: the GI50 was 0.0277 µM (active) with COLO 205; 0.0232 µM (active) with K562; 0.0405 µM (active) in the experiment on A498; 0.214 µM (active) in the experiment with NCI-H23; 0.0388 µM (active) with SF-539; 0.0687 µM (active) with Hs-578T. Also, the GI50 in the experiment with RXF 393 is 0.0274 µM (active); in the experiment on UO-31, 0.0752 µM (active); in the experiment on OVCAR-5, 0.239 µM (active); with SK-MEL-5, 0.036 µM (active); in the experiment with OVCAR-8, 0.0847 µM (active); in the experiment with MDA-MB-231, 0.245 µM (active). The GI50 in the experiment with NCI-H460 was 0.0451 µM (active); in the experiment with MDA-N it was 0.0115 µM (active); with UACC-62 it was 0.0436 µM (active); with NCI/ADR-RES, 0.0594 µM (active); with KM12 it was 0.0366 µM (active); in the experiment with SW-620, 0.0383 µM (active). For the same compound, the GI50 in the experiment on HT-29 is 0.0331 µM (active).
In the case of `Cc1nc(=O)[nH]c(NCCNCCO)c1C(=O)Nc1cccc2cc3ccccc3cc12`, the GI50 in the experiment with COLO 205, in the experiment on K562, with A498, with NCI-H23, in the experiment on SK-MEL-28 and with SF-539 was > 100 µM (inactive) each time. Moreover, the GI50 in the experiment with Hs-578T, in the experiment on RXF 393, in the experiment on OVCAR-5, in the experiment with SK-MEL-5, with OVCAR-8 and in the experiment on MDA-MB-231 was > 100 µM (inactive) in each case. Moreover, the GI50 in the experiment on NCI-H460, in the experiment on MDA-N, with UACC-62, with NCI/ADR-RES, with KM12 and in the experiment with SW-620 was > 100 µM (inactive) in each case. Besides, the GI50 in the experiment on HT-29 is > 100 µM (inactive).
Consider `CCOC(=O)c1nc2cc(C(F)(F)F)ccc2nc1Oc1ccc(C(=O)OC)cc1`, for which the GI50 in the experiment on COLO 205, in the experiment on K562, in the experiment with A498, in the experiment on SK-MEL-28, in the experiment on SF-539 and in the experiment with Hs-578T was > 100 µM (inactive) each time. For the same compound, the GI50 with RXF 393 was 85.5 µM (inactive); with UO-31 it was > 100 µM (inactive); in the experiment on OVCAR-5, > 100 µM (inactive); in the experiment on SK-MEL-5, > 100 µM (inactive); in the experiment on OVCAR-8, > 100 µM (inactive); with MDA-MB-231 it was > 100 µM (inactive). Also, the GI50 in the experiment on NCI-H460, in the experiment with MDA-N, with UACC-62, in the experiment on NCI/ADR-RES, in the experiment on KM12 and in the experiment with SW-620 was > 100 µM (inactive) each time.

The values above are taken from ChEMBL document CHEMBL1201862, “PubChem BioAssay data set” (2004).
